Source: patent publication US10766878B2, “Sulfonylcycloalkyl carboxamide compounds” (Genentech, Inc., priority 2017, dated 2020)

Molecular target: human TRPA1 (Homo sapiens (Human), UniProt O75762)
Assay: hTRPA1 CHO Ca2+ AUC EVO (IC50); FLIPR Tetra block of cinnamaldehyde induced calcium influx
Format: cell-based
Settings: CHO cells expressing TRPA1, 75 uM cinnamaldehyde agonist
Procedure: IC50 values ([…]) of compounds on the human and rat TRPA1 channels were determined using a FLIPR Tetra instrument. CHO cells expressing TRPA1 were plated into 384-well plates, incubated overnight at 37 C, and loaded with BD calcium indicator dye for 1 hr at 37° C. followed by 15 minutes. at room temperature. The assay buffer was Hank's Balanced Salt Solution (HBSS) containing 20 mM HEPES (pH readjusted to 7.4) along with 0.02% BSA.
Following dye load and plate cool down, compounds were added to the cells using FLIPR Tetra. Plates were then incubated with compounds for 20 minutes at room temperature prior to adding agonist. Following this incubation, ˜EC80 concentration of cinnamaldehyde (75 uM for human TRPA1 and 45 uM for rat TRPA1) was added to active the channels and block of cinnamaldehyde induced calcium influx was measured.
IC50 values were fit with a standard Hill function, keeping the Hill coefficient (n) fixed to 1.5. Fixing the Hill coefficient will generally reduce variability of the IC50 determination. The IC50 values were individually examined to make sure the MIN and MAX points were set correctly prior to validation of the results.

human TRPA1, sequence (O75762 whole entry): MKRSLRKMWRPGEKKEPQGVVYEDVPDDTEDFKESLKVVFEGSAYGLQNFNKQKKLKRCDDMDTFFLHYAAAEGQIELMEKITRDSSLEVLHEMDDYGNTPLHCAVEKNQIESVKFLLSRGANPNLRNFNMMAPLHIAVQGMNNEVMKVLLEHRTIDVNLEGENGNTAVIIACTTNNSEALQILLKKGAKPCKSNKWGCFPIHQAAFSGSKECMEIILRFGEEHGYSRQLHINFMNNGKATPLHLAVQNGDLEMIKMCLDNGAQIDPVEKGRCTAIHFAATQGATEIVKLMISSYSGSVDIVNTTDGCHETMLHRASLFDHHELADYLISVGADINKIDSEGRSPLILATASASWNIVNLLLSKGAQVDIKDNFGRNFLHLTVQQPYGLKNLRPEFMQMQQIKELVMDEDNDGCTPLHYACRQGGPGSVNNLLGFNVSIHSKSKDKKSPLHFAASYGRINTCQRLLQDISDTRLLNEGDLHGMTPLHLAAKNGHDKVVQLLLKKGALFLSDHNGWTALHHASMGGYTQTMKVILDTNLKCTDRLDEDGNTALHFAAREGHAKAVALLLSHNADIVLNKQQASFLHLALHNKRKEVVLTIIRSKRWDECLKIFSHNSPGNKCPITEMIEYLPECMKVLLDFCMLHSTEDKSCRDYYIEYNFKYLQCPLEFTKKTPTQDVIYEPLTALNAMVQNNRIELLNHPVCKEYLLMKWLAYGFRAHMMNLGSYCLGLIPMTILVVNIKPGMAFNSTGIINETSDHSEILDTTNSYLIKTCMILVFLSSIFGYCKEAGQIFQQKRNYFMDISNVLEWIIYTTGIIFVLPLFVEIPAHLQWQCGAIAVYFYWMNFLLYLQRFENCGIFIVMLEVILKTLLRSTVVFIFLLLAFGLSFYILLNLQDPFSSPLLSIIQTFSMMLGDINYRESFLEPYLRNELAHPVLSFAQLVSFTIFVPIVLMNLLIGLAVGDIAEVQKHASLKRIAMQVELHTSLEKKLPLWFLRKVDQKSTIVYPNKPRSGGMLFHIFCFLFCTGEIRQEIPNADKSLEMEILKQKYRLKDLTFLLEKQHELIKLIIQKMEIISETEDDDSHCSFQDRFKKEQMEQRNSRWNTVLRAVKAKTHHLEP

SMILES | IC50 (Table 1) [nM] | IC50 (Table 3) [nM]
COc1nn(-c2ccc(C(F)(F)F)cc2)cc1CNC(=O)C1CCC1(C)S(=O)(=O)c1ccc(F)cc1 (single isomer, unassigned; enantiomer 1) [Example 22, 2-(4-fluorophenylsulfonyl)-N-(3-methoxy-1-(4-(trifluoromethyl)phenyl)-1H-pyrazol-4-yl)methyl)-2-methylcyclobutanecarboxamide (Enantiomer 1)] | – | 71.7
COc1nn(-c2ccc(C(F)(F)F)nc2)cc1CC(=O)NC1CCC1S(=O)(=O)c1ccc(F)cc1 (single isomer, unassigned; enantiomer 2) [Example 12, N-(2-((4-fluorophenyl)sulfonyl)cyclobutyl)-2-(3-methoxy-1-(6-(trifluoromethyl)pyridin-3-yl)-1H-pyrazol-4-yl)acetamide (Enantiomer 2)] | – | 213
O=C(NCc1cn(-c2ccc(C(F)(F)F)cc2)nc1C(F)F)C1CCC1S(=O)(=O)c1ccc(F)cc1 (single isomer, unassigned; enantiomer 2) [Example 18, N-((3-(difluoromethyl)-1-(4-(trifluoromethyl)phenyl)-1H-pyrazol-4-yl)methyl)-2-(4-fluorophenylsulfonyl) cyclobutanecarboxamide (Enantiomer 2)] | – | 96
O=C(NCc1cn(-c2ccc(C(F)(F)F)nc2)nc1C(F)(F)F)C1CCC1S(=O)(=O)c1ccc(F)cc1 (single isomer, unassigned; enantiomer 2) [Example 25, 2-(4-fluorophenylsulfonyl)-N-((3-(trifluoromethyl)-1-(6-(trifluoromethyl)pyridin-3-yl)-1H-pyrazol-4-yl)methyl) cyclobutanecarboxamide (Enantiomer 2)] | – | 192
O=C(NCc1cn(-c2ccc(C(F)(F)F)cc2)nc1Cl)C1CCC1S(=O)(=O)c1ccc(F)cc1 (single isomer, unassigned; enantiomer 2) [Example 29, N-((3-chloro-1-(4-(trifluoromethyl)phenyl)-1H-pyrazol-4-yl)methyl)-2-(4-fluorophenylsulfonyl) cyclobutanecarboxamide (Enantiomer 2)] | – | 65.8
CC1(C(=O)NCc2cn(-c3ccc(C(F)(F)F)nc3)nc2Cl)CCCC1S(=O)(=O)c1ccc(F)cc1 (single isomer, unassigned; enantiomer 2) [Example 32, N-((3-chloro-1-(6-(trifluoromethyl)pyridin-3-yl)-1H-pyrazol-4-yl)methyl)-2-(4-fluorophenylsulfonyl)-1-methylcyclopentanecarboxamide (Enantiomer 2)] | – | 85.7
COc1nn(-c2ccc(C(F)(F)F)nc2)cc1CNC(=O)C1(C)CCCC1S(=O)(=O)c1ccc(F)cc1 (single isomer, unassigned; enantiomer 2) [Example 35, 2-(4-fluorophenylsulfonyl)-N-((3-methoxy-1-(6-(trifluoromethyl)pyridin-3-yl)-1H-pyrazol-4-yl)methyl)-1-methylcyclopentanecarboxamide (Enantiomer 2)] | – | 199
COc1nn(-c2ccc(C(F)(F)F)nc2)cc1CNC(=O)C1CCCC1S(=O)(=O)c1ccc(F)cc1 (single isomer, unassigned; enantiomer 2) [Example 39, 2-(4-fluorophenylsulfonyl)-N-((3-methoxy-1-(6-(trifluoromethyl)pyridin-3-yl)-1H-pyrazol-4-yl)methyl) cyclopentanecarboxamide (Enantiomer 2)] | – | 218
O=C(NCc1cn(-c2ccc(C(F)(F)F)cc2)nc1Cl)C1CCCC1S(=O)(=O)c1ccc(F)cc1 (single isomer, unassigned; enantiomer 2) [Example 42, N-((3-chloro-1-(4-(trifluoromethyl)phenyl)-1H-pyrazol-4-yl)methyl)-2-(4-fluorophenylsulfonyl) cyclopentanecarboxamide (Enantiomer 2)] | 45.5 | 45.5
O=C(NCc1cn(-c2ccc(C(F)(F)F)nc2)nc1C(F)(F)F)C1CCC1S(=O)(=O)c1ccc(F)cc1 (single isomer, unassigned; enantiomer 3) [Example 26, 2-(4-fluorophenylsulfonyl)-N-((3-(trifluoromethyl)-1-(6-(trifluoromethyl)pyridin-3-yl)-1H-pyrazol-4-yl)methyl) cyclobutanecarboxamide (Enantiomer 3)] | – | 90.2
O=C(NCc1cn(-c2ccc(C(F)(F)F)cc2)nc1Cl)C1CCC1S(=O)(=O)c1ccc(F)cc1 (single isomer, unassigned; enantiomer 3) [Example 30, N-((3-chloro-1-(4-(trifluoromethyl)phenyl)-1H-pyrazol-4-yl)methyl)-2-(4-fluorophenylsulfonyl) cyclobutanecarboxamide (Enantiomer 3)] | – | 56.7
CC1(C(=O)NCc2cn(-c3ccc(C(F)(F)F)nc3)nc2Cl)CCCC1S(=O)(=O)c1ccc(F)cc1 (single isomer, unassigned; enantiomer 3) [Example 33, N-((3-chloro-1-(6-(trifluoromethyl)pyridin-3-yl)-1H-pyrazol-4-yl)methyl)-2-(4-fluorophenylsulfonyl)-1-methylcyclopentanecarboxamide (Enantiomer 3)] | – | 88.5
COc1nn(-c2ccc(C(F)(F)F)nc2)cc1CNC(=O)C1(C)CCCC1S(=O)(=O)c1ccc(F)cc1 (single isomer, unassigned; enantiomer 3) [Example 36, 2-(4-fluorophenylsulfonyl)-N-((3-methoxy-1-(6-(trifluoromethyl)pyridin-3-yl)-1H-pyrazol-4-yl)methyl)-1-methylcyclopentanecarboxamide (Enantiomer 3)] | – | 62.2
CC1(C(=O)NCc2cn(-c3ccc(C(F)(F)F)cc3)nc2Cl)CCCC1S(=O)(=O)c1ccc(F)cc1 (single isomer, unassigned; enantiomer 3) [Example 38, N-((3-chloro-1-(4-(trifluoromethyl)phenyl)-1H-pyrazol-4-yl)methyl)-2-(4-fluorophenylsulfonyl)-1-methylcyclopentanecarboxamide (Enantiomer 3)] | 47.1 | 47.1
O=C(Cc1cn(-c2cnc(C(F)(F)F)nc2)nc1C(F)(F)F)N[C@@H]1CC[C@@H]1[S+]([O-])c1ccc(F)cc1 (stereo partly drawn) [Example 2, N-((1R,2S)-2-(4-fluorophenylsulfinyl)cyclobutyl)-2-(3-(trifluoromethyl)-1-(2-(trifluoromethyl)pyrimidin-5-yl)-1H-pyrazol-4-yl)acetamide] | – | 500

Compounds with a lower IC50 (Table 3), results first:

IC50 (Table 1) [nM] | IC50 (Table 3) [nM] | SMILES
8.79 | 8.79 | CC1(C(=O)NCc2cn(-c3ccc(C(F)(F)F)cc3)nc2Cl)CCCC1S(=O)(=O)c1ccc(F)cc1 (single isomer, unassigned; enantiomer 1) [Example 5, N-((3-chloro-1-(4-(trifluoromethyl)phenyl)-1H-pyrazol-4-yl)methyl)-2-(4-fluorophenylsulfonyl)-1-methylcyclopentanecarboxamide (Enantiomer 1)]
39.2 | 39.2 | CC1(C(=O)NCc2cn(-c3ccc(C(F)(F)F)nc3)nc2Cl)CCCC1S(=O)(=O)c1ccc(F)cc1 (single isomer, unassigned; enantiomer 1) [Example 31, N-((3-chloro-1-(6-(trifluoromethyl)pyridin-3-yl)-1H-pyrazol-4-yl)methyl)-2-(4-fluorophenylsulfonyl)-1-methylcyclopentanecarboxamide (Enantiomer 1)]
33.1 | 33.1 | COc1nn(-c2ccc(C(F)(F)F)nc2)cc1CNC(=O)C1(C)CCCC1S(=O)(=O)c1ccc(F)cc1 (single isomer, unassigned; enantiomer 1) [Example 34, 2-(4-fluorophenylsulfonyl)-N-((3-methoxy-1-(6-(trifluoromethyl)pyridin-3-yl)-1H-pyrazol-4-yl)methyl)-1-methylcyclopentanecarboxamide (Enantiomer 1)]
38 | 38 | COc1nn(-c2ccc(C(F)(F)F)cc2)cc1CNC(=O)C1CCC1(C)S(=O)(=O)c1ccc(F)cc1 (single isomer, unassigned; enantiomer 2) [Example 23, 2-(4-fluorophenylsulfonyl)-N-((3-methoxy-1-(4-(trifluoromethyl)phenyl)-1H-pyrazol-4-yl)methyl)-2-methylcyclobutanecarboxamide (Enantiomer 2)]
23.9 | 23.9 | CC1(C(=O)NCc2cn(-c3ccc(C(F)(F)F)cc3)nc2Cl)CCCC1S(=O)(=O)c1ccc(F)cc1 (single isomer, unassigned; enantiomer 2) [Example 37, N-((3-chloro-1-(4-(trifluoromethyl)phenyl)-1H-pyrazol-4-yl)methyl)-2-(4-fluorophenylsulfonyl)-1-methylcyclopentanecarboxamide (Enantiomer 2)]
– | 34.6 | O=C(NCc1cn(-c2ccc(C(F)(F)F)cc2)nc1C(F)F)[C@@H]1CC[C@@H]1S(=O)(=O)c1ccc(F)cc1 [Example 1, (1S,2S)-N-((3-(difluoromethyl)-1-(4-(trifluoromethyl)phenyl)-1H-pyrazol-4-yl)methyl)-2-(4-fluorophenylsulfonyl) cyclobutanecarboxamide]
7.88 | 7.88 | O=C(Cc1cn(-c2cnc(C(F)(F)F)nc2)nc1C(F)(F)F)N[C@@H]1CC[C@@H]1S(=O)(=O)c1ccc(F)cc1 [Example 3, N-((1R,2S)-2-(4-fluorophenylsulfonyl)cyclobutyl)-2-(3-(trifluoromethyl)-1-(2-(trifluoromethyl)pyrimidin-5-yl)-1H-pyrazol-4-yl)acetamide]
